Data from patent US9199946B2, “Pyrimidinone carboxamide inhibitors of endothelial lipase” (BRISTOL-MYERS SQUIBB COMPANY, priority 2012, dated 2015).

Molecular target: T1, Endothelial lipase (EL) (Homo sapiens, UniProt Q9Y5X9)
T1 construct: HT-1080 cells, which were transformed by RAGE technology (Athersys) to overexpress endogenous EL; endogenous in cells; conditioned medium used as the enzyme source
T1 sequence (Q9Y5X9 21-500): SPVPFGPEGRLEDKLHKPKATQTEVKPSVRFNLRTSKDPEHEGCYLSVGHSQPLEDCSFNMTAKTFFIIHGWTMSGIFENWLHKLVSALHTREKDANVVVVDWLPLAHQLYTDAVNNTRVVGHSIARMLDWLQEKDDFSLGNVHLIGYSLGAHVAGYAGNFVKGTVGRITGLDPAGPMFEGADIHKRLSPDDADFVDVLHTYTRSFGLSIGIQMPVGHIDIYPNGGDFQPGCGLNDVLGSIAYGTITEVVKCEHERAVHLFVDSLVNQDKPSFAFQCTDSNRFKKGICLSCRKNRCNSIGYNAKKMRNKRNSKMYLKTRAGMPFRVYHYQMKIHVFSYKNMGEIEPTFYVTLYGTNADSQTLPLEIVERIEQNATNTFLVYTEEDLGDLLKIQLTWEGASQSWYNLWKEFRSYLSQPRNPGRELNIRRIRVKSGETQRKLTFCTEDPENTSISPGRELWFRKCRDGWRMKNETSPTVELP
Test: Endothelial lipase (EL) enzymatic assay with fluorescent substrate A10070 in DMPG vesicles
Format: biochemical
Conditions: conditioned media from HT-1080 cells overexpressing endogenous EL; 20 min preincubation at 37° C.; read-out: EL IC50
Method in brief: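 The enzyme source was conditioned medium from HT-1080 cells engineered to overexpress endogenous EL. It was preincubated with compound for 20 min at 37 °C in 50 mM HEPES pH 8.0, 50 mM NaCl, 1 mM CaCl2. Reactions started with DMPG vesicles carrying FRET substrate A10070 (mole fraction 0.05). The rate was taken from the linear slope of fluorescence (ex 488/em 530 nm) over 10 min.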

Row | IC50 | Compound
1 | 2.25 µM | Cn1nccc1-c1ccc([C@@H]2CC[C@H](NC(=O)c3[nH]c(=O)[nH]c(=O)c3N)C2)cc1 [Example 163, 5-amino-N-((1S,3R)-3-(4-(1-methyl-1H-pyrazol-5-yl)phenyl)cyclopentyl)-2,6-dioxo-1,2,3,6-tetrahydropyrimidine-4-carboxamide]
2 | 1.19 µM | Nc1c(C(=O)N[C@H]2CC[C@@H](NC(=O)c3nc4ccccc4s3)CC2)[nH]c(=O)[nH]c1=O [Example 117, N-(cis-4-(5-amino-2,6-dioxo-1,2,3,6-tetrahydropyrimidine-4-carboxamido)cyclohexyl)benzo[d] thiazole-2-carboxamide]
3 | 3.37 µM | Nc1c(C(=O)NC2CCCc3c2sc2nc[nH]c(=O)c32)[nH]c(=O)[nH]c1=O (stereo not drawn) [Example 45, 5-amino-2,6-dioxo-N-(4-oxo-1,4,5,6,7,8-hexahydro[1]benzothieno[2,3-d]pyrimidin-8-yl)-1,2,3,6-tetrahydro-4-pyrimidinecarboxamide]
4 | 0.447 µM | Nc1c(C(=O)N[C@H]2CC[C@@H](c3nc(-c4ccc(Cl)c(Cl)c4)no3)CC2)[nH]c(=O)[nH]c1=O [Example 48, 5-amino-N-(cis-4-(3-(3,4-dichlorophenyl)-1,2,4-oxadiazol-5-yl)cyclohexyl)-2,6-dioxo-1,2,3,6-tetrahydropyrimidine-4-carboxamide]
5 | 9.86 µM | Nc1c(C(=O)NC2CCN(C(=O)Nc3ccc(C(F)(F)F)cc3)c3ccccc32)[nH]c(=O)[nH]c1=O (stereo not drawn) [Example 26, 4-(5-amino-2,6-dioxo-1,2,3,6-tetrahydropyrimidine-4-carboxamido)-N-(4-(trifluoromethyl)phenyl)-3,4-dihydroquinoline-1(2H)-carboxamide]

Same assay, conditions: range observed in the EL assay; read-out: EL IC50 values

Row | Compound | IC50
6 | Nc1c(C(=O)N[C@H]2CCc3c(Br)cccc32)[nH]c(=O)[nH]c1=O [Example 60, (S)-5-amino-N-(4-bromo-2,3-dihydro-1H-inden-1-yl)-2,6-dioxo-1,2,3,6-tetrahydropyrimidine-4-carboxamide] | ≤ 10 µM
7 | COc1ccc(C2CCC(NC(=O)c3[nH]c(=O)[nH]c(=O)c3N)C2)cc1 (stereo not drawn) [Example 107, 5-amino-N-(3-(4-methoxyphenyl)cyclopentyl)-2,6-dioxo-1,2,3,6-tetrahydropyrimidine-4-carboxamide] | ≤ 10 µM
8 | Nc1c(C(=O)N[C@H]2CCCc3ccc(F)cc32)[nH]c(=O)[nH]c1=O [Example 41, (S)-5-amino-N-(7-fluoro-1,2,3,4-tetrahydronaphthalen-1-yl)-2,6-dioxo-1,2,3,6-tetrahydropyrimidine-4-carboxamide] | ≤ 10 µM
9 | COc1ccc2c(c1)C(NC(=O)c1[nH]c(=O)[nH]c(=O)c1N)CCC2 (stereo not drawn) [Example 39, 5-amino-N-(7-methoxy-1,2,3,4-tetrahydronaphthalen-1-yl)-2,6-dioxo-1,2,3,6-tetrahydropyrimidine-4-carboxamide] | ≤ 10 µM
10 | Nc1c(C(=O)NC2CCC(c3nc4ccc(-c5ccccc5)cc4s3)C2)[nH]c(=O)[nH]c1=O (stereo not drawn) [Example 144, 5-amino-2,6-dioxo-N-(3-(6-phenylbenzo[d]thiazol-2-yl)cyclopentyl)-1,2,3,6-tetrahydropyrimidine-4-carboxamide] | ≤ 10 µM
11 | Nc1c(C(=O)N[C@H]2CC[C@@H](NC(=O)c3nc4ccccc4s3)CC2)[nH]c(=O)[nH]c1=O [Example 117, N-(cis-4-(5-amino-2,6-dioxo-1,2,3,6-tetrahydropyrimidine-4-carboxamido)cyclohexyl)benzo[d] thiazole-2-carboxamide] | ≤ 10 µM
12 | Nc1c(C(=O)NC2CCCc3c2sc2nc[nH]c(=O)c32)[nH]c(=O)[nH]c1=O (stereo not drawn) [Example 45, 5-amino-2,6-dioxo-N-(4-oxo-1,4,5,6,7,8-hexahydro[1]benzothieno[2,3-d]pyrimidin-8-yl)-1,2,3,6-tetrahydro-4-pyrimidinecarboxamide] | ≤ 10 µM
13 | Nc1c(C(=O)N[C@@H]2CCCc3c2cccc3C(F)(F)F)[nH]c(=O)[nH]c1=O [Example 49, (R)-5-amino-2,6-dioxo-N-(5-(trifluoromethyl)-1,2,3,4-tetrahydronaphthalen-1-yl)-1,2,3,6-tetrahydropyrimidine-4-carboxamide] | ≤ 10 µM
14 | Nc1c(C(=O)N[C@@H]2CCc3cc(Br)ccc32)[nH]c(=O)[nH]c1=O [Example 65, (R)-5-amino-N-(5-bromo-2,3-dihydro-1H-inden-1-yl)-2,6-dioxo-1,2,3,6-tetrahydropyrimidine-4-carboxamide] | ≤ 10 µM
15 | Nc1c(C(=O)N[C@H]2CC[C@@H](OCc3ccccc3)CC2)[nH]c(=O)[nH]c1=O [Example 95, 5-amino-N-(cis-4-(benzyloxy)cyclohexyl)-2,6-dioxo-1,2,3,6-tetrahydropyrimidine-4-carboxamide] | ≤ 10 µM
16 | Nc1c(C(=O)N[C@H]2CC[C@@H](c3nc(-c4ccc(Cl)c(Cl)c4)no3)CC2)[nH]c(=O)[nH]c1=O [Example 48, 5-amino-N-(cis-4-(3-(3,4-dichlorophenyl)-1,2,4-oxadiazol-5-yl)cyclohexyl)-2,6-dioxo-1,2,3,6-tetrahydropyrimidine-4-carboxamide] | ≤ 10 µM
17 | Nc1c(C(=O)NC2CCN(C(=O)Nc3ccc(C(F)(F)F)cc3)c3ccccc32)[nH]c(=O)[nH]c1=O (stereo not drawn) [Example 26, 4-(5-amino-2,6-dioxo-1,2,3,6-tetrahydropyrimidine-4-carboxamido)-N-(4-(trifluoromethyl)phenyl)-3,4-dihydroquinoline-1(2H)-carboxamide] | ≤ 10 µM
18 | Nc1c(C(=O)N[C@@H]2CCCc3ccccc32)[nH]c(=O)[nH]c1=O [Example 13, (R)-5-amino-2,6-dioxo-N-(1,2,3,4-tetrahydronaphthalen-1-yl)-1,2,3,6-tetrahydropyrimidine-4-carboxamide] | ≤ 10 µM

More lines, now with the values ahead:

Row | IC50 | Compound
19 | ≤ 10 µM | CC(C)Oc1ccc(C2CCC(NC(=O)c3[nH]c(=O)[nH]c(=O)c3O)C2)cc1 (stereo not drawn) [Example 294, 5-hydroxy-N-(3-(4-isopropoxyphenyl)cyclopentyl)-2,6-dioxo-1,2,3,6-tetrahydropyrimidine-4 carboxamide]
20 | ≤ 10 µM | O=C(N[C@H]1CCCc2c1cccc2C(F)(F)F)c1[nH]c(=O)[nH]c(=O)c1O [Example 266, (S)-5-hydroxy-2,6-dioxo-N-(5-(trifluoromethyl)-1,2,3,4-tetrahydronaphthalen-1-yl)-1,2,3,6-tetrahydropyrimidine-4-carboxamide]
21 | ≤ 10 µM | O=C(N[C@H]1CC[C@@H](c2ccccc2)CC1)c1[nH]c(=O)n(CCC(F)(F)F)c(=O)c1O [Example 252, 5-hydroxy-2,6-dioxo-N-((1s,4s)-4-phenylcyclohexyl)-1-(3,3,3-trifluoropropyl)-1,2,3,6-tetrahydropyrimidine-4-carboxamide]
22 | ≤ 10 µM | O=C(N[C@@H]1CC[C@@H](C(=O)N[C@H]2CCCc3ccccc32)C1)c1[nH]c(=O)[nH]c(=O)c1O [Example 298, 5-hydroxy-2,6-dioxo-N-((1R,3R)-3-((S)-1,2,3,4-tetrahydronaphthalen-1-ylcarbamoyl)cyclopentyl)-1,2,3,6-tetrahydropyrimidine-4-carboxamide]
23 | ≤ 10 µM | Cn1nccc1-c1ccc([C@@H]2CC[C@H](NC(=O)c3[nH]c(=O)[nH]c(=O)c3N)C2)cc1 [Example 163, 5-amino-N-((1S,3R)-3-(4-(1-methyl-1H-pyrazol-5-yl)phenyl)cyclopentyl)-2,6-dioxo-1,2,3,6-tetrahydropyrimidine-4-carboxamide]
24 | ≤ 10 µM | O=C(NC1CCC(c2cnn(Cc3ccccc3)c2)C1)c1[nH]c(=O)[nH]c(=O)c1O (stereo not drawn) [Example 283, N-(3-(1-benzyl-1H-pyrazol-4-yl)cyclopentyl)-5-hydroxy-2,6-dioxo-1,2,3,6-tetrahydropyrimidine-4-carboxamide]
25 | ≤ 10 µM | Nc1c(C(=O)NC2CCC(c3ccc(OCc4ccccc4)cc3)C2)[nH]c(=O)[nH]c1=O (single isomer, unassigned) [Example 151, 5-amino-N-(3-(4-(benzyloxy)phenyl)cyclopentyl)-2,6-dioxo-1,2,3,6-tetrahydropyrimidine-4-carboxamide]
26 | ≤ 10 µM | O=C(N[C@@H]1CC[C@@H](C(=O)N[C@H]2CC[C@@H](c3ccccc3)CC2)C1)c1[nH]c(=O)[nH]c(=O)c1O [Example 297, 5-hydroxy-2,6-dioxo-N-((1R,3R)-3-((1s,4S)-4-phenylcyclohexylcarbamoyl)cyclopentyl)-1,2,3,6-tetrahydropyrimidine-4-carboxamide]
27 | ≤ 10 µM | O=C(N[C@@H]1CC[C@H](c2ccccc2)C1)c1[nH]c(=O)[nH]c(=O)c1O [Example 271, 5-Hydroxy-2,6-dioxo-N-((1R,3S)-3-phenylcyclopentyl)-1,2,3,6-tetrahydropyrimidine-4-carboxamide]
28 | ≤ 10 µM | Nc1c(C(=O)N[C@@H]2CC[C@@H](C(=O)N[C@H]3CC[C@@H](c4ccccc4)CC3)C2)[nH]c(=O)[nH]c1=O [Example 147, 5-amino-2,6-dioxo-N-((1R,3R)-3-(cis-4-phenylcyclohexylcarbamoyl)cyclopentyl)-1,2,3,6-tetrahydropyrimidine-4-carboxamide]
29 | ≤ 10 µM | Cn1c(=O)[nH]c(C(=O)N[C@H]2CC[C@@H](c3ccccc3)CC2)c(O)c1=O [Example 242, 5-hydroxy-1-methyl-2,6-dioxo-N-(cis-4-phenylcyclohexyl)-1,2,3,6-tetrahydropyrimidine-4-carboxamide]
30 | ≤ 10 µM | CC(C)Cn1c(=O)[nH]c(C(=O)N[C@H]2CC[C@@H](c3ccccc3)CC2)c(O)c1=O [Example 253, 5-hydroxy-1-isobutyl-2,6-dioxo-N-((1s,4s)-4-phenylcyclohexyl)-1,2,3,6-tetrahydropyrimidine-4-carboxamide]
31 | ≤ 10 µM | Nc1c(C(=O)N[C@H]2CC[C@@H](c3ccc(-c4ccccc4)cc3)C2)[nH]c(=O)[nH]c1=O [Example 167, 5-amino-N-((1S,3R)-3-(biphenyl-4-yl)cyclopentyl)-2,6-dioxo-1,2,3,6-tetrahydropyrimidine-4-carboxamide]
32 | ≤ 10 µM | O=C(N[C@H]1CC[C@@H](c2ccccc2)CC1)c1[nH]c(=O)[nH]c(=O)c1NC1CCC1 [Example 233, 5-(cyclobutylamino)-2,6-dioxo-N-(cis-4-phenylcyclohexyl)-1,2,3,6-tetrahydropyrimidine-4-carboxamide]
33 | ≤ 10 µM | O=C(N[C@H]1CC[C@@H](c2ccccc2)CC1)c1[nH]c(=O)[nH]c(=O)c1NCCc1c[nH]cn1 [Example 213, 5-(2-(1H-imidazol-4-yl)ethylamino)-2,6-dioxo-N-(cis-4-phenylcyclohexyl)-1,2,3,6-tetrahydropyrimidine-4-carboxamide]
